Target: T1, Thermolysin (Bacillus thermoproteolyticus, UniProt P00800)
T1 sequence (P00800 whole entry): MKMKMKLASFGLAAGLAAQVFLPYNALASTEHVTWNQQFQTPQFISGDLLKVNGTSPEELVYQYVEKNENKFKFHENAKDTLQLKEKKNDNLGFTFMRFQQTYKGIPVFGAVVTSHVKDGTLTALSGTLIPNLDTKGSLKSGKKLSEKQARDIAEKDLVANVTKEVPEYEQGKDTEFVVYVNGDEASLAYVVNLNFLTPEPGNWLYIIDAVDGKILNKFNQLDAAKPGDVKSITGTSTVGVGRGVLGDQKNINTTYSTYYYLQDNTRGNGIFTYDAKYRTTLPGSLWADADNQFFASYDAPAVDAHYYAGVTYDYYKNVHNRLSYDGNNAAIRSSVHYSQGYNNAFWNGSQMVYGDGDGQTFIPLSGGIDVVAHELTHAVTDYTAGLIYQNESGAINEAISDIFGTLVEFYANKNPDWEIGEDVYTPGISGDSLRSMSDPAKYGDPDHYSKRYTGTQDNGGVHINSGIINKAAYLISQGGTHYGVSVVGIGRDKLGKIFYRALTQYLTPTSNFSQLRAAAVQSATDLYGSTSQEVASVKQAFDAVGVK
Assay: Inhibitory constant against thermolysin.

| Structure (SMILES) | Ki [nM] |
| --- | --- |
| CC(C)C[C@H](NC(=O)[C@H](CC(C)C)NC(=O)CN(C(=O)OCc1ccccc1)P(=O)(O)O)C(=O)O | 9.1 |
| CC(C)C[C@H](NC(CCCc1ccccc1)C(=O)O)C(=O)N[C@@H](Cc1c[nH]c2ccccc12)C(=O)O (some centres not stated) | 50 |
| O=C(O)CC(=O)N[C@@H](CS)Cc1ccccc1 | 2300 |
| C[C@H](NC(=O)C(CS)Cc1ccccc1)C(=O)NCC(N)=O (some centres not stated) | 750 |
| CC(C)C[C@H](NP(=O)(O)O)C(N)=O | 21300 |
| CC(C)C[C@H](NP(=O)(O)O[C@@H]1O[C@@H](C)[C@H](O)[C@@H](O)[C@H]1O)C(=O)N[C@@H](Cc1c[nH]c2ccccc12)C(=O)O [PHOSPHORAMIDON] | 28 |
| O=C(O)CNC(=O)C(CS)Cc1ccccc1 (configuration not stated) [THIORPHAN] | 1800 |

Reference: ChEMBL document CHEMBL1126029, “Definition and display of steric, hydrophobic, and hydrogen-bonding properties of ligand binding sites in proteins using Lee and Richards accessible surface: validation of a high-resolution graphical tool for drug design” (J Med Chem, 1992)
